In this data set the target is IRF5. The following applies: ASO.

Where “and” joins values, the source holds several entries; their conditions need not be identical. Equal entries are not always repeated. After the bases stand the sugars from the 5' end (letter, count) and the backbone: PS all phosphorothioate, else s phosphorothioate and o phosphodiester by linkage. Methylation of C is not given here. e = 2'-O-(2-methoxyethyl) (MOE); k = constrained ethyl (cEt); d = 2'-deoxy (DNA)

As for “CAGGTTCTTGGACTCT (sugars kekdddddddddeekk, PS)”, the target mRNA inhibition is 34% (KARPAS-229, 0.44444 µM); 48% (KARPAS-229, 1.33333 µM); 48% and 62% (KARPAS-229, 4 µM); 74% (KARPAS-229, 12 µM). As to “CAGGTTCTTGGACTCT (sugars kkdddddddddkekek, PS)”, the target mRNA inhibition (KARPAS-229, 4 µM) worked out at 0%. Same read-out and setting: the result for “CAGGTTCTTGGACTCT (sugars kkkddddddddkdkdk, PS)” reads 0%. On the same count and under the same terms, the same measure for CATCAGCTTTCTTGTC (sugars k3 d10 k3, PS): 28%.

For the sequence “CATCTCCACATCAGTC (sugars kddddddddddkekek, PS)”, under “KARPAS-229, 4 µM”, the target mRNA inhibition was found to be 25%. Take “CATTCCATATACACAC (sugars k2 d8 e4 k2, PS)”: the target mRNA inhibition (KARPAS-229, 4 µM) turned out to be 21%. On the same count and under the same terms, the same measure for “CATTCCATATACACAC (sugars k3 d9 k3 e1, PS)”: 39%. On the same count and under the same terms, the result for “CATTCCATATACACAC (sugars kkdddddddddkekek, PS)” reads 54%; that for “CATTCCATATACACAC (sugars kkkdddddddddkeke, PS)”, 28%. The same measure, in the same setting: the same measure for “CATTCCATATACACAC (sugars kkkddddddddkdkdk, PS)”: 40%; for “CATTCCATATACACAC (sugars kkkddddddddkekek, PS)”: 32%.

“CATTCTATGCCTTTTA (sugars kkddddddddkekekk, PS)” returned a target mRNA inhibition (KARPAS-229, 4 µM) of 56%.

As for “CCAATGCAACATCCAT (sugars kkddddddddddkeke, PS)”, the target mRNA inhibition (KARPAS-229, 4 µM) worked out at 0%. Under “KARPAS-229, 4 µM”, “CCAATGCAACATCCAT (sugars kkdddddddddkdkdk, PS)” returned a target mRNA inhibition of 0%.

On to “CCAATGCAACATCCAT (sugars kkdddddddddkekek, PS)”, for which the target mRNA inhibition (KARPAS-229, 4 µM) turned out to be 0%. Regarding “CCAATTTTGCATTCCA (sugars kkddddddddddkeke, PS)”, the target mRNA inhibition runs as follows: (KARPAS-229, 0.44444 µM) 47%; (KARPAS-229, 1.33333 µM) 66%; (KARPAS-229, 4 µM) 75% and 57%; (KARPAS-229, 12 µM) 82%. In the case of “CCAATTTTGCATTCCA (sugars kkdddddddddkekek, PS)”, the target mRNA inhibition (KARPAS-229, 4 µM) turned out to be 11%.

Turning to “CCACTGTGTACCCCAT (sugars k3 d9 k3 e1, PS)”, for the setting “KARPAS-229, 4 µM”, the target mRNA inhibition is 57%. Same read-out and setting: the same measure for “CCACTGTGTACCCCAT (sugars kkddddddddddkeke, PS)”: 19%. “CCACTGTGTACCCCAT (sugars kkdddddddddkdkdk, PS)” registered a target mRNA inhibition (KARPAS-229, 4 µM) of 54%. The same measure, in the same setting: the result for “CCCAATGCAACATCCA (sugars kdddddddddkekeke, PS)” reads 0%. The sequence “CCCAATGCAACATCCA (sugars kkdddddddddkekek, PS)” came in with a target mRNA inhibition (KARPAS-229, 4 µM) of 0%. Same read-out and setting: the same measure for “CCCAATGCAACATCCA (sugars kkddddddddkekekk, PS)”: 0%.

Under “KARPAS-229, 4 µM”, “CCCAATGCAACATCCA (sugars kkkddddddddkekek, PS)” gave a target mRNA inhibition of 0%. The same measure, in the same setting: the result for CCTCATGAGTAATAGG (sugars k3 d10 k3, PS) reads 0%; that for “CCTTCTGCAGGGAGTC (sugars kkdddddddddkekek, PS)”, 0%. “CCTTCTGCAGGGAGTC (sugars kkkdddddddddkeke, PS)” registered a target mRNA inhibition (KARPAS-229, 4 µM) of 1%.

In turn, “CCTTCTGCAGGGAGTC (sugars kkkddddddddkdkdk, PS)” displayed a target mRNA inhibition (KARPAS-229, 4 µM) of 0%. On the same count and under the same terms, the same measure for “CGGTCTTTGAGGTCTG (sugars kdddddddddkekeke, PS)”: 40%; for “CGGTCTTTGAGGTCTG (sugars kkkdddddddddkeke, PS)”: 38%. On the same count and under the same terms, the same measure for CTAAACCATTCTATGC (sugars k3 d10 k3, PS): 0%; for “CTGACACAGGCGGATG (sugars kddddddddddkekek, PS)”: 0%; for “CTGTCACATCTCCACA (sugars k2 d9 e3 k2, PS)”: 10%. Still for that read-out and setting: the same measure for “CTGTCACATCTCCACA (sugars kkddddddddddkeke, PS)”: 19%; for “CTGTCACATCTCCACA (sugars kkdddddddddkdkdk, PS)”: 6%; for CTTCTGCAGGGAGTCA (sugars k3 d10 k3, PS): 0%. “CTTGGTCTTGACCTCC (sugars kkkdddddddddkeke, PS)” returned a target mRNA inhibition (KARPAS-229, 4 µM) of 15%.

As for CTTTCTTGTCTAGTGT (sugars k3 d10 k3, PS), the target mRNA inhibition (KARPAS-229, 4 µM) worked out at 48%. The same measure, in the same setting: the result for “GAAGTGAGTCTCAAAC (sugars kddddddddddkekek, PS)” reads 44%; that for “GAAGTGAGTCTCAAAC (sugars kkddddddddkekekk, PS)”, 27%. On the same count and under the same terms, the result for “GAGTCATGGGCTGAGG (sugars kdddddddddkekeke, PS)” reads 0%; that for “GAGTCATGGGCTGAGG (sugars kkddddddddkekekk, PS)”, 0%; that for “GAGTCTCAAACCAGGG (sugars kddddddddddkekek, PS)”, 0%.

The sequence “GATGGTGTTATCTCCG (sugars k2 d8 e4 k2, PS)” displayed a target mRNA inhibition (KARPAS-229, 4 µM) of 0%. With “GATGGTGTTATCTCCG (sugars k3 d9 k3 e1, PS)”, the target mRNA inhibition (KARPAS-229, 4 µM) was found to be 0%.

With “GATGGTGTTATCTCCG (sugars kkdddddddddkdkdk, PS)”, the target mRNA inhibition (KARPAS-229, 4 µM) turned out to be 0%. The same measure, in the same setting: the same measure for “GATGGTGTTATCTCCG (sugars kkdddddddddkekek, PS)”: 0%. Same read-out and setting: the result for GCACTGACACAGGCGG (sugars k3 d10 k3, PS) reads 14% and 0%; that for “GCACTGACACAGGCGG (sugars kdddddddddkekeke, PS)”, 0%; that for “GCACTGACACAGGCGG (sugars kkddddddddkekekk, PS)”, 0%. Same read-out and setting: the same measure for “GCTGTCACATCTCCAC (sugars kddddddddddkekek, PS)”: 17%; for “GCTGTCACATCTCCAC (sugars kkddddddddkekekk, PS)”: 29%; for “GCTGTCACATCTCCAC (sugars kkkdddddddddkeke, PS)”: 3%.

“GCTGTCACATCTCCAC (sugars kkkddddddddkdkdk, PS)” registered a target mRNA inhibition (KARPAS-229, 4 µM) of 35%. “GCTTGGTCTTGACCTC (sugars k2 d9 e3 k2, PS)” came in with a target mRNA inhibition (KARPAS-229, 4 µM) of 10%. The same measure, in the same setting: the same measure for “GCTTGGTCTTGACCTC (sugars kekdddddddddeekk, PS)”: 46%. Same read-out and setting: the result for “GCTTGGTCTTGACCTC (sugars kkdddddddddkekek, PS)” reads 33%; that for “GCTTGGTCTTGACCTC (sugars kkddddddddkekekk, PS)”, 21%; that for “GGAAGTGAGTCTCAAA (sugars k2 d9 e3 k2, PS)”, 32%. For “GGAAGTGAGTCTCAAA (sugars k3 d9 k3 e1, PS)”, the target mRNA inhibition is 21% (KARPAS-229, 0.44444 µM); 13% (KARPAS-229, 1.33333 µM); 49% and 71% (KARPAS-229, 4 µM); 76% (KARPAS-229, 12 µM). “GGAAGTGAGTCTCAAA (sugars kkddddddddkekekk, PS)” registered a target mRNA inhibition (KARPAS-229, 4 µM) of 36%. For the setting “KARPAS-229, 4 µM”, GGACGAGTTATGGGAA (sugars k3 d10 k3, PS) gave a target mRNA inhibition of 37%. Same read-out and setting: the same measure for “GGAGTGAGACGAGCAA (sugars k3 d9 k3 e1, PS)”: 33%. On the same count and under the same terms, the same measure for “GGAGTGAGACGAGCAA (sugars kkddddddddddkeke, PS)”: 33%. On the same count and under the same terms, the result for “GGAGTGAGACGAGCAA (sugars kkdddddddddkdkdk, PS)” reads 16%; that for “GGAGTGAGACGAGCAA (sugars kkddddddddkekekk, PS)”, 38%.

As for “GGGCACAGCGCAGGTT (sugars kkddddddddkekekk, PS)”, the target mRNA inhibition is, setting by setting: (KARPAS-229, 0.44444 µM) 15%; (KARPAS-229, 1.33333 µM) 32%; (KARPAS-229, 4 µM) 61% and 66%; (KARPAS-229, 12 µM) 76%. Regarding “GGGCACAGCGCCAGGTT (sugars kddddddddddkekekd, PS)”, the target mRNA inhibition is, setting by setting: (KARPAS-229, 0.44444 µM) 23%; (KARPAS-229, 1.33333 µM) 40%; (KARPAS-229, 4 µM) 37% and 62%; (KARPAS-229, 12 µM) 87%. “GGTCTGGCCCTTTTGG (sugars kekdddddddddeekk, PS)” came in with a target mRNA inhibition (KARPAS-229, 4 µM) of 13%. On the same count and under the same terms, the same measure for “GGTCTGGCCCTTTTGG (sugars kkdddddddddkekek, PS)”: 3%.

Take “GGTCTGGCCCTTTTGG (sugars kkddddddddkekekk, PS)”: where the note is “KARPAS-229, 4 µM”, the target mRNA inhibition came to 0%. “GGTCTGGCCCTTTTGG (sugars kkkddddddddkdkdk, PS)” registered a target mRNA inhibition (KARPAS-229, 4 µM) of 0%. As to “GGTCTTGACCTCCCGC (sugars kkkddddddddkdkdk, PS)”, for the setting “KARPAS-229, 4 µM”, the target mRNA inhibition was 4%.

With “GGTCTTGACCTCCCGC (sugars kkkddddddddkekek, PS)”, the target mRNA inhibition (KARPAS-229, 4 µM) was found to be 29%. Regarding “GGTCTTTGAGGTCTGG (sugars k2 d9 e3 k2, PS)”, the target mRNA inhibition by setting is: (KARPAS-229, 0.44444 µM) 22%; (KARPAS-229, 1.33333 µM) 58%; (KARPAS-229, 4 µM) 74% and 69%; (KARPAS-229, 12 µM) 79%. On to “GGTCTTTGAGGTCTGG (sugars kkddddddddddkeke, PS)”, for which the target mRNA inhibition (KARPAS-229, 0.44444 µM) was 39%; the target mRNA inhibition (KARPAS-229, 1.33333 µM) worked out at 43%; the target mRNA inhibition (KARPAS-229, 4 µM) was 67% and 63%; the target mRNA inhibition (KARPAS-229, 12 µM) came out at 72%. Turning to “GGTGTATTTCCCTGTC (sugars kddddddddddkekek, PS)”, under “KARPAS-229, 4 µM”, the target mRNA inhibition worked out at 0%.

In turn, “GGTGTATTTCCCTGTC (sugars kekdddddddddeekk, PS)” registered a target mRNA inhibition (KARPAS-229, 4 µM) of 5%. The same measure, in the same setting: the same measure for “GGTGTATTTCCCTGTC (sugars kkdddddddddkekek, PS)”: 26%. Still for that read-out and setting: the result for “GGTGTATTTCCCTGTC (sugars kkkddddddddkdkdk, PS)” reads 1%; that for “GGTGTATTTCCCTGTC (sugars kkkddddddddkekek, PS)”, 0%. The same measure, in the same setting: the result for “GGTTCTTGGACTCTCA (sugars kddddddddddkekek, PS)” reads 9%.
